Reference: PubChem BioAssay (NCI)
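Each compound was tested at five concentrations against cells in 96-well plates for 48 hours. Here, GI50 denotes the concentration required for 50% inhibition of growth. The concentration for full growth arrest is given as TGI.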

Assays:
Assay in all cases: DTP human tumour cell line panel, 48 h
[1] = tested on: KM12 colon
[2] = tested on: NCI-H522 lung
[3] = tested on: SN12C renal
[4] = tested on: SR leukemia
[5] = tested on: DU-145 prostate
[6] = tested on: SF-268 CNS
[7] = tested on: CAKI-1 renal
[8] = tested on: ACHN renal
[9] = tested on: SK-MEL-5 melanoma
[10] = tested on: NCI-H460 lung
[11] = tested on: TK-10 renal
[12] = tested on: 786-0 renal
[13] = tested on: SF-295 CNS
[14] = tested on: NCI-H226 lung
[15] = tested on: U251 CNS
[16] = tested on: OVCAR-5 ovarian
[17] = tested on: SNB-19 CNS
[18] = tested on: SF-539 CNS
[19] = tested on: SK-MEL-2 melanoma
[20] = tested on: HOP-62 NSCLC
[21] = tested on: SW-620 colon
[22] = tested on: MALME-3M melanoma
[23] = tested on: NCI-H23 lung
[24] = tested on: UACC-257 melanoma
[25] = tested on: CCRF-CEM leukemia
[26] = tested on: PC-3 prostate
[27] = tested on: SNB-75 CNS
[28] = tested on: MOLT-4 leukemia
[29] = tested on: A498 renal
[30] = tested on: M14 melanoma
[31] = tested on: RPMI-8226 leukemia
[32] = tested on: RXF 393 renal
[33] = tested on: BT-549 breast
[34] = tested on: K-562 leukemia
[35] = tested on: MDA-MB-231 breast
[36] = tested on: UACC-62 melanoma
[37] = tested on: LOX IMVI melanoma
[38] = tested on: OVCAR-4 ovarian
[39] = tested on: T-47D breast
[40] = tested on: COLO 205 colon
[41] = tested on: OVCAR-3 ovarian
[42] = tested on: HOP-92 NSCLC
[43] = tested on: SK-MEL-28 melanoma
[44] = tested on: SK-OV-3 ovarian
[45] = tested on: EKVX NSCLC
[46] = tested on: HCT-15 colon
[47] = tested on: HCC-2998 colon
[48] = tested on: A549 NSCLC
[49] = tested on: HS 578T breast
[50] = tested on: MCF7 breast
[51] = tested on: NCI/ADR-RES ovarian
[52] = tested on: HT29 colon
[53] = tested on: OVCAR-8 ovarian
[54] = tested on: IGROV1 ovarian
[55] = tested on: HCT-116 colon
[56] = tested on: UO-31 renal
[57] = tested on: MDA-MB-435
[58] = tested on: HL-60(TB) leukemia

Compound `Cc1ccc(C(SCC(N)C(=O)O)(c2ccc(C)cc2)c2ccc(C)cc2)cc1` (stereo unspecified) has a GI50 [1] of 2.26 µM, a TGI [1] of 12.4 µM and a GI50 [2] of 1.01 µM. The TGI [2] was 16.7 µM, the GI50 [3] was 2.74 µM and the TGI [3] was 18.4 µM. The GI50 [4] was 1.92 µM, the TGI [4] was 6.91 µM and the GI50 [5] was 2.45 µM. It also gave a TGI [5] of 5.59 µM, a GI50 [6] of 1.89 µM and a TGI [6] of 19.5 µM. For the same compound, the GI50 [7] was 2.74 µM, the TGI [7] was 12.5 µM and the GI50 [8] was 14.5 µM. For the same compound, the TGI [8] was over 68.3 µM, the GI50 [9] was 0.907 µM and the TGI [9] was 14.7 µM. For the same compound, the GI50 [10] was 2.3 µM, the TGI [10] was 12 µM and the GI50 [11] was 8.31 µM. The TGI [11] was 22.6 µM, the GI50 [12] was 4.93 µM and the TGI [12] was 30.1 µM. The GI50 [13] was 1.29 µM, the TGI [13] was 10.3 µM and the GI50 [14] was 9.84 µM. It also gave a TGI [14] of over 49.8 µM, a GI50 [15] of 1.71 µM and a TGI [15] of 16.8 µM. The GI50 [16] was 9.2 µM, the TGI [16] was over 48.6 µM and the GI50 [17] was 4.97 µM. For the same compound, the TGI [17] was 30.2 µM, the GI50 [18] was 1.22 µM and the TGI [18] was 7.5 µM. The GI50 [19] was 2.72 µM, the TGI [19] was 20.5 µM and the GI50 [20] was 6.52 µM. It also gave a TGI [20] of 22.3 µM, a GI50 [21] of 1.64 µM and a TGI [21] of 15.8 µM. It also gave a GI50 [22] of 11.6 µM, a TGI [22] of 26 µM and a GI50 [23] of 4.87 µM. The TGI [23] was over 43.2 µM, the GI50 [24] was 6.18 µM and the TGI [24] was 26.7 µM. For the same compound, the GI50 [25] was 3.08 µM, the TGI [25] was 55.4 µM and the GI50 [26] was 2.94 µM. For the same compound, the TGI [26] was 20.1 µM, the GI50 [27] was 6.69 µM and the TGI [27] was over 38.2 µM. The GI50 [28] was 3.81 µM, the TGI [28] was 20.2 µM and the GI50 [29] was 4.04 µM. The TGI [29] was 14.6 µM, the GI50 [30] was 0.729 µM and the TGI [30] was 2.37 µM. For the same compound, the GI50 [31] was 2.27 µM, the TGI [31] was 12.5 µM and the GI50 [32] was 1.46 µM. The TGI [32] was 14.8 µM, the GI50 [33] was 3.33 µM and the TGI [33] was 20.5 µM. For the same compound, the GI50 [34] was 2.96 µM, the TGI [34] was 12.3 µM and the GI50 [35] was 1.93 µM. For the same compound, the TGI [35] was 7.77 µM, the GI50 [36] was 1.03 µM and the TGI [36] was 13.8 µM. The GI50 [37] was 7.16 µM, the TGI [37] was 20.2 µM and the GI50 [38] was 11.3 µM. For the same compound, the TGI [38] was over 48.3 µM, the GI50 [39] was 3.5 µM and the TGI [39] was 21.9 µM. The GI50 [40] was 2.14 µM, the TGI [40] was 5.62 µM and the GI50 [41] was 2.22 µM. It also gave a TGI [41] of 7.39 µM, a GI50 [42] of 2.87 µM and a TGI [42] of 17.5 µM. For the same compound, the GI50 [43] was 7.47 µM, the TGI [43] was 22.7 µM and the GI50 [44] was 1 µM. The TGI [44] was 15.3 µM, the GI50 [45] was 4.32 µM and the TGI [45] was 39.4 µM. It also gave a GI50 [46] of 4.54 µM, a TGI [46] of 27.9 µM and a GI50 [47] of 2.5 µM. The TGI [47] was 11 µM, the GI50 [48] was 2.62 µM and the TGI [48] was 16.8 µM. It also gave a GI50 [49] of 0.669 µM, a TGI [49] of 4.44 µM and a GI50 [50] of 0.895 µM. For the same compound, the TGI [50] was 18.4 µM, the GI50 [51] was 15 µM and the TGI [51] was 53.7 µM. For the same compound, the GI50 [52] was 3.55 µM, the TGI [52] was over 34.8 µM and the GI50 [53] was 2.36 µM. The TGI [53] was 17.4 µM, the GI50 [54] was 10.3 µM and the TGI [54] was 29.5 µM. It also gave a GI50 [55] of 0.829 µM, a TGI [55] of 13 µM and a GI50 [56] of 9.79 µM. It also gave a TGI [56] of 40.4 µM, a GI50 [57] of 0.337 µM and a TGI [57] of 1.16 µM. For the same compound, the GI50 [58] was 2.53 µM and the TGI [58] was 8.09 µM.
